In patent US10544143B2, “4-azaindole compounds” (BRISTOL-MYERS SQUIBB COMPANY, priority 2017, dated 2020):
pIC50: −log10 of the molar value. Read-outs that look alike come from different tables or passages of the source.

Columns and labels:
human TLR7 = human TLR7 (Homo sapiens (Human), UniProt Q9NYK1); assay: TLR7 inhibition reporter assay (HEK-Blue SEAP); assay type: cell-based
human TLR9 = human TLR9 (Homo sapiens (Human), UniProt Q9NR96); assay: TLR9 inhibition reporter assay (HEK-Blue SEAP); conditions: read-out: TLR9 IC50;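 also: SEAP driven by an IFN-β minimal promoter with NF-κB and AP-1 sites, read after 22 h, compounds dosed 0.05 nM–50 µM, inhibition scaled between agonist plus DMSO and reference-inhibitor wells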
human TLR9, sequence (Q9NR96 26-1032): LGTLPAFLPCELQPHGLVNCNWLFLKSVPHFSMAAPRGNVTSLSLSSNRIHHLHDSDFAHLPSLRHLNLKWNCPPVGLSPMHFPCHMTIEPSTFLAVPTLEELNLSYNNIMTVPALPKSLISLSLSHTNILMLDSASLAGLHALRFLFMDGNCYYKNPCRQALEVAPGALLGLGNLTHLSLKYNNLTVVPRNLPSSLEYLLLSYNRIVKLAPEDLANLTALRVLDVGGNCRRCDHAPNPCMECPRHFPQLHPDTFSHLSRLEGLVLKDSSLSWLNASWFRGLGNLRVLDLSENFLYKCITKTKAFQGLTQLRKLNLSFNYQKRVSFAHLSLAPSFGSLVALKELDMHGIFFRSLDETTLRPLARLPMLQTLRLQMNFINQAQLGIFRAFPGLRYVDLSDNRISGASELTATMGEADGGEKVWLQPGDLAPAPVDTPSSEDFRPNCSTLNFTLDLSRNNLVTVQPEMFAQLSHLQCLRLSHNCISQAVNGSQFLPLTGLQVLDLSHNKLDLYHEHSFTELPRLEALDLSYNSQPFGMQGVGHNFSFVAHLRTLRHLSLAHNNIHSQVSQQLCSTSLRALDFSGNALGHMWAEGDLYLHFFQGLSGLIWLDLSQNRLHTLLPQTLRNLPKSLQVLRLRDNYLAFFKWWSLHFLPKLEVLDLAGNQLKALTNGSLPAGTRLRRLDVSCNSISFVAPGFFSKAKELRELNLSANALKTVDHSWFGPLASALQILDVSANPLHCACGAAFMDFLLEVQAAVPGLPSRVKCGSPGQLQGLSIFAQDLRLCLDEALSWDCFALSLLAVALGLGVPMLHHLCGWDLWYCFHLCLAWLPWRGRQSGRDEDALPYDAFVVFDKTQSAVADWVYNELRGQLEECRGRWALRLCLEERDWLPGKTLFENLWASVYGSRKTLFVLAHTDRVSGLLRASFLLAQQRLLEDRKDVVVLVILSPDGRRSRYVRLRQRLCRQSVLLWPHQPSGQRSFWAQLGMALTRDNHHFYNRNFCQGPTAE

human TLR8 = human TLR8 (Homo sapiens (Human), UniProt Q9NR97); assay: TLR8 inhibition reporter assay (HEK-Blue SEAP); conditions: read-out: TLR8 IC50;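 also: SEAP driven by IFN-β minimal promoter carrying NF-κB and AP-1 sites, compounds dosed 0.05 nM to 50 µM for 22 h, inhibition scaled between agonist-plus-DMSO and reference-inhibitor wells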
human TLR8, sequence (Q9NR97 27-1041): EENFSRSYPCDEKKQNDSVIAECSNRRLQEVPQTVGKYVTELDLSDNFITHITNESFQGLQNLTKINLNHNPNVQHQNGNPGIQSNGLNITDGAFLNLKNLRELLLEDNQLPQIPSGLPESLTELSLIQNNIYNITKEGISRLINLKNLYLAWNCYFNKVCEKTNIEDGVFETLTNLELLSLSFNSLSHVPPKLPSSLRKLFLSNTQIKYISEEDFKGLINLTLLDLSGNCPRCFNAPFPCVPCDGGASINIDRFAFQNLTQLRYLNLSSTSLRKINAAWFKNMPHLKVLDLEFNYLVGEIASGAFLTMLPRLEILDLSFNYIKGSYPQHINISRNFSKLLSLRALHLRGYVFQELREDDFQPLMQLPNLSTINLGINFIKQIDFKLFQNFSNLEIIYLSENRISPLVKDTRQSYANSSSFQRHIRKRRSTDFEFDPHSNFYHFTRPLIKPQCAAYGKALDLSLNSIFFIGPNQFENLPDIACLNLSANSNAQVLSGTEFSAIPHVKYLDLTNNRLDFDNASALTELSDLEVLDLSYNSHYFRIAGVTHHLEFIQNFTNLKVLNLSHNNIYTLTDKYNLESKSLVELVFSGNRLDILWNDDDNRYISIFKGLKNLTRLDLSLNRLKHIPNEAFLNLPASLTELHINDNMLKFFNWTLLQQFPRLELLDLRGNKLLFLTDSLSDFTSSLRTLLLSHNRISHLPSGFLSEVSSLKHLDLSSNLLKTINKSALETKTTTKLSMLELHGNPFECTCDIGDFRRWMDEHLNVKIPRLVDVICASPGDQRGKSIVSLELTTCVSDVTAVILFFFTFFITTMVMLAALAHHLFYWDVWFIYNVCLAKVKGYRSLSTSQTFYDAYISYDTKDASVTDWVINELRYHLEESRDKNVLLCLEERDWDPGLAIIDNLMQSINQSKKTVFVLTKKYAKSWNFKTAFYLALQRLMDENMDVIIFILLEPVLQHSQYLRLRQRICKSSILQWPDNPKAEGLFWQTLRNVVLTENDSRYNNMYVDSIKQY

[1] = HEK-Blue human TLR7 cells, gardiquimod 7.5 μM
[2] = HEK-Blue human TLR9 cells, ODN2006 5 nM
[3] = HEK-Blue human TLR8 cells, R848 15.9 μM
[4] = HEK-Blue cells overexpressing human TLR7, gardiquimod 7.5 μM stimulation, SEAP reporter
[5] = HEK-Blue cells overexpressing human TLR9, ODN2006 5 nM stimulation, SEAP reporter
[6] = HEK-Blue cells overexpressing human TLR8, R848 15.9 μM stimulation, SEAP reporter
[7] = HEK-Blue cells overexpressing human TLR7, SEAP reporter, gardiquimod 7.5 μM
[8] = HEK-Blue cells overexpressing human TLR9, SEAP reporter, ODN2006 5 nM
[9] = HEK-Blue cells overexpressing human TLR8, SEAP reporter, R848 15.9 μM

human TLR7, sequence (Q9NYK1 27-1049): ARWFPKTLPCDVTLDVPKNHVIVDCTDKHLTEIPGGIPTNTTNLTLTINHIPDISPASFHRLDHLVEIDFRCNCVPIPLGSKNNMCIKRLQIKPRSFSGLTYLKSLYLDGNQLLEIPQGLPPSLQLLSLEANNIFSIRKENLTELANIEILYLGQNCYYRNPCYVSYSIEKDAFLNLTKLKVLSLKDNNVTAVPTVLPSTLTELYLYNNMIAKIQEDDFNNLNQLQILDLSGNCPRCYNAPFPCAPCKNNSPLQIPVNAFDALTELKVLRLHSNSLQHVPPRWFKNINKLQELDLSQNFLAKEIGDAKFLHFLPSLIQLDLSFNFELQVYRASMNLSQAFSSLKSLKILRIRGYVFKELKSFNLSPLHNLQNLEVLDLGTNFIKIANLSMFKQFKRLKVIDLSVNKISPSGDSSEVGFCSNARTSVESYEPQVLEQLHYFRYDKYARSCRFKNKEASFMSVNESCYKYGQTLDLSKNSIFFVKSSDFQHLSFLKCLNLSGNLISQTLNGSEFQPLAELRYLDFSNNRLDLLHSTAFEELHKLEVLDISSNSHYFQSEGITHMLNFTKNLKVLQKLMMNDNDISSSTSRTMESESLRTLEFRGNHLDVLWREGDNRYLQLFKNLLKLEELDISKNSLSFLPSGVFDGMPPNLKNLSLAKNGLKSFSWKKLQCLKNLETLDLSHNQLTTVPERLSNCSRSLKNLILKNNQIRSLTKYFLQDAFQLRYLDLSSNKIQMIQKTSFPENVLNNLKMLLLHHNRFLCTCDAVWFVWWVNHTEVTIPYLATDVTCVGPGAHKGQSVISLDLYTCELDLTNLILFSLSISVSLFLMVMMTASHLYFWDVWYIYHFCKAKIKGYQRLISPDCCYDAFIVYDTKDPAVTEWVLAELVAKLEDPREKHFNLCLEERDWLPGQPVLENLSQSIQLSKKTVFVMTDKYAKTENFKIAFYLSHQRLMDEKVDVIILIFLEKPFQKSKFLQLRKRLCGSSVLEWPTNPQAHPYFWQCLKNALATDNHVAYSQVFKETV

| Compound | pIC50 (human TLR7; [4]) | pIC50 (human TLR9; [5]) | pIC50 (human TLR8; [6]) | pIC50 (human TLR7; [7]) | pIC50 (human TLR9; [8]) | pIC50 (human TLR8; [9]) | also measured |
| --- | --- | --- | --- | --- | --- | --- | --- |
| Cc1c(-c2[nH]c3ccc(N4CCN(C(=O)CN5CC6(COC6)C5)[C@@H](C)C4)nc3c2C(C)C)cn2ncnc2c1C [Example 900] |  |  |  |  |  |  | pIC50 (human TLR7; [1]): 8.96; pIC50 (human TLR9; [2]): 4.81; pIC50 (human TLR8; [3]): 8.85 |
| COc1cc(-c2[nH]c3ccc(C4CCC(NCC5(S(C)(=O)=O)CC5)CC4)nc3c2C(C)C)cn2ncnc12 (stereo not drawn) [Example 219] | 8.41 | 5.60 | 8.10 |  |  |  |  |
| Cc1c(-c2[nH]c3ccc(N4CCN(C(=O)CN(CCO)C(C)(C)C)[C@H](C)C4)nc3c2C(C)C)cn2ncnc2c1C [Example 955] |  |  |  |  |  |  | pIC50 (human TLR7; [1]): 9.12; pIC50 (human TLR9; [2]): 4.69; pIC50 (human TLR8; [3]): 8.70 |
| COc1cc(-c2[nH]c3ccc(CCC4CN(C(=O)CN(C)C)C4)nc3c2C(C)C)cn2ncnc12 [Example 699] |  |  |  | 7.92 | 6.37 | 7.34 |  |
| Cc1cc(-c2[nH]c3ccc(C4CCNCC4)nc3c2C(C)C)cn(C)c1=O [Example 515] |  |  |  | 8.10 | 6.65 | 7.68 |  |
| Cc1c(-c2[nH]c3ccc(N4CCN(C(=O)CN5CCC5)CC4)nc3c2C(C)C)cn2ncnc2c1C [Example 146] | 8.25 | 4.89 | 8.60 |  |  |  |  |
| Cc1c(-c2[nH]c3ccc(C4CC(N(C)CC(C)(C)O)C4)nc3c2C(C)C)cn2ncnc2c1C (stereo not drawn) [Example 641] |  |  |  | 8.04 | 5.48 | 8.46 |  |
| COc1cc(-c2[nH]c3ccc(N4CCN(C5CCN(C(C)=O)CC5)CC4)nc3c2C(C)C)cn2ncnc12 [Example 121] | 8.47 | 5.20 | 9.10 |  |  |  |  |
| Cc1c(-c2[nH]c3ccc(N4C[C@@H](C)N(C(=O)CCN5CCOCC5)C[C@@H]4C)nc3c2C(C)C)cn2ncnc2c1C [Example 907] |  |  |  |  |  |  | pIC50 (human TLR7; [1]): 9.12; pIC50 (human TLR9; [2]): < 4.30; pIC50 (human TLR8; [3]): 9.35 |
| Cc1c(-c2[nH]c3ccc(N4C[C@@H](C)N(CCC(N)=O)C[C@@H]4C)nc3c2C(C)C)cn2ncnc2c1C [Example 848] |  |  |  |  |  |  | pIC50 (human TLR7; [1]): 8.92; pIC50 (human TLR9; [2]): 4.76; pIC50 (human TLR8; [3]): 8.66 |
| Cc1c(-c2[nH]c3ccc(N4CC(N(C)C)C4)nc3c2C(C)C)cn2ncnc2c1C [Example 12] | 8.00 | 5.00 | 8.80 |  |  |  |  |
| COc1cc(-c2[nH]c3ccc(C4CCC(N5CCC[C@H]5CO)CC4)nc3c2C(C)C)cn2ncnc12 (stereo partly drawn) [Example 197] | 9.47 | 6.87 | 8.77 |  |  |  |  |
| COCCNC1CN(c2ccc3[nH]c(-c4cn5ncnc5c(C)c4C)c(C(C)C)c3n2)C1 [Example 1000] |  |  |  |  |  |  | pIC50 (human TLR7; [1]): 7.74; pIC50 (human TLR9; [2]): 5.19; pIC50 (human TLR8; [3]): 8.49 |
| Cc1c(-c2[nH]c3ccc(N4CCNC[C@@H]4C)nc3c2C(C)C)cn2ncnc2c1C [Example 152] | 8.57 | 5.23 | 8.80 |  |  |  |  |
| Cc1c(-c2[nH]c3ccc(N4CC(NC(C)C)C4)nc3c2C(C)C)cn2ncnc2c1C [Example 999] |  |  |  |  |  |  | pIC50 (human TLR7; [1]): 8.12; pIC50 (human TLR9; [2]): 4.98; pIC50 (human TLR8; [3]): 8.68 |
| Cc1c(-c2[nH]c3ccc(N4CCN(C(=O)CN5CCC(F)(F)C5)CC4)nc3c2C(C)C)cn2ncnc2c1C [Example 919] |  |  |  |  |  |  | pIC50 (human TLR7; [1]): 7.64; pIC50 (human TLR9; [2]): 4.86; pIC50 (human TLR8; [3]): 9.00 |
| Cc1c(-c2[nH]c3ccc(N4C[C@@H](C)N(C(=O)CCN5CCC(F)(F)C5)C[C@@H]4C)nc3c2C(C)C)cn2ncnc2c1C [Example 962] |  |  |  |  |  |  | pIC50 (human TLR7; [1]): 8.43; pIC50 (human TLR9; [2]): < 4.30; pIC50 (human TLR8; [3]): 7.77 |
| CCN(C)C1CCC(c2ccc3[nH]c(-c4cn5ncnc5c(C)c4C)c(C(C)C)c3n2)CC1 (stereo not drawn) [Example 388] | 9.06 | 6.05 | 8.66 |  |  |  |  |
| Cc1c(-c2[nH]c3ccc(C4CCC(N5CCC(F)(F)CC5)CC4)nc3c2C(C)C)cn2ncnc2c1C (stereo not drawn) [Example 381] | 8.43 | 5.09 | 8.26 |  |  |  |  |
| Cc1c(-c2[nH]c3ccc(CCC4CN(CC(C)(C)O)C4)nc3c2C(C)C)cn2ncnc2c1C [Example 701] |  |  |  | 7.31 | 5.76 | 7.82 |  |
| Cc1c(-c2[nH]c3ccc(C4CCC(N(C)Cc5c[nH]nn5)CC4)nc3c2C(C)C)cn2ncnc2c1C (stereo not drawn) [Example 397] |  |  |  | 8.20 | 5.62 | 8.00 |  |
| Cc1c(-c2[nH]c3ccc(N4CCN(C(=O)CN(C)C)[C@@H](C)C4)nc3c2C(C)C)cn2ncnc2c1C [Example 887] |  |  |  |  |  |  | pIC50 (human TLR7; [1]): 9.30; pIC50 (human TLR9; [2]): 5.09; pIC50 (human TLR8; [3]): 9.17 |

| Compound | pIC50 (human TLR7; [4]) | pIC50 (human TLR9; [5]) | pIC50 (human TLR8; [6]) | pIC50 (human TLR7; [7]) | pIC50 (human TLR9; [8]) | pIC50 (human TLR8; [9]) | also measured |
| --- | --- | --- | --- | --- | --- | --- | --- |
| COc1cc(-c2[nH]c3cc(C)c(C4CCC(N5CCC5)CC4)nc3c2C(C)C)cn2ncnc12 (stereo not drawn) [Example 326] | 9.89 | 6.01 | 8.43 |  |  |  |  |
| COc1cc(-c2[nH]c3ccc(C4CCC(N(C)C5CC5)CC4)nc3c2C(C)C)cn2ncnc12 (stereo not drawn) [Example 171] | 9.35 | 6.25 | 8.74 |  |  |  |  |
| Cc1c(-c2[nH]c3ccc(N4CC(NC5CCOCC5)C4)nc3c2C(C)C)cn2ncnc2c1C [Example 1, 1-(2-(7,8-dimethyl-[1,2,4]triazolo[1,5-a]pyridin-6-yl)-3-isopropyl-1H-pyrrolo[3,2-b]pyridin-5-yl)-N-(tetrahydro-2H-pyran-4-yl)azetidin-3-amine] | 7.70 | 5.11 | 8.42 |  |  |  |  |
| COc1cc(-c2[nH]c3ccc(OCC4CCN(CCS(C)(=O)=O)CC4)nc3c2C(C)C)cn2ncnc12 [Example 604, 6-(3-isopropyl-5-((1-(2-(methylsulfonyl)ethyl)piperidin-4-yl)methoxy)-1H-pyrrolo[3,2-b]pyridin-2-yl)-8-methoxy-[1,2,4]triazolo[1,5-a]pyridine] |  |  |  | 8.55 | 5.23 | 8.60 |  |
| Cc1c(-c2[nH]c3ccc(C4CCC(N5CC6(CCO6)C5)CC4)nc3c2C(C)C)cn2ncnc2c1C (stereo not drawn) [Example 1055] |  |  |  |  |  |  | pIC50 (human TLR7; [1]): 8.37; pIC50 (human TLR9; [2]): 5.26; pIC50 (human TLR8; [3]): 8.08 |
| Cc1c(-c2[nH]c3ccc(C4CCC(N(C)C)CC4)nc3c2C(C)C)cn2ncnc2c1C (stereo not drawn) [Example 355] | 8.59 | 5.35 | 8.00 |  |  |  |  |
| COc1cc(-c2[nH]c3ccc(C4CN(C(=O)CCN(C)C)CCO4)nc3c2C(C)C)cn2ncnc12 (stereo not drawn) [Example 672] |  |  |  | 8.33 | 5.20 | 7.05 |  |
| COc1cc(-c2[nH]c3ccc(C4CCC(NC5CCOCC5)C4)nc3c2C(C)C)cn2ncnc12 (stereo not drawn) [Example 721] |  |  |  | 9.39 | 6.01 | 9.28 |  |
| Cc1c(-c2[nH]c3ccc(C4CC5(CNC5)C4)nc3c2C(C)C)cn2ncnc2c1C [Example 745, 6-(3-isopropyl-5-(2-azaspiro[3.3]heptan-6-yl)-1H-pyrrolo[3,2-b]pyridin-2-yl)-7,8-dimethyl-[1,2,4]triazolo[1,5-a]pyridine] |  |  |  | 8.66 | 5.61 | 8.24 |  |
| Cc1c(-c2[nH]c3ccc(C4CCC(NCC(=O)NC(C)(C)C)CC4)nc3c2C(C)C)cn2ncnc2c1C (stereo not drawn) [Example 485] |  |  |  | 8.96 | 5.60 | 8.66 |  |
| COc1cc(-c2[nH]c3ccc(C4CC(NCC5(C)COC5)C4)nc3c2C(C)C)cn2ncnc12 (stereo not drawn) [Example 616] |  |  |  | 8.44 | 5.89 | 8.82 |  |
| Cc1c(-c2[nH]c3ccc(C4CCC(N(CC#N)CC5(S(C)(=O)=O)CC5)CC4)nc3c2C(C)C)cn2ncnc2c1C (stereo not drawn) [Example 475] |  |  |  | 8.85 | 5.46 | 8.66 |  |
| Cc1c(-c2[nH]c3ccc(N4CCN(CC(=O)N(C)C)CC4)nc3c2C(C)C)cn2ncnc2c1C [Example 144] | 8.08 | < 4.30 | 8.92 |  |  |  |  |
| Cc1cnc(CNC2CCC(c3ccc4[nH]c(-c5cc(CO)c6ncnn6c5)c(C(C)C)c4n3)CC2)cn1 (stereo not drawn) [Example 224] | 8.82 | 6.14 | 8.38 |  |  |  |  |
| COc1cc(-c2[nH]c3ccc(OCC4CN(C(C)C)C4)nc3c2C(C)C)cn2ncnc12 [Example 592, 6-(3-isopropyl-5-((1-isopropylazetidin-3-yl)methoxy)-1H-pyrrolo[3,2-b]pyridin-2-yl)-8-methoxy-[1,2,4]triazolo[1,5-a]pyridine] |  |  |  | 8.54 | 5.65 | 8.13 |  |
| CC(C)c1c(-c2cn(C)c3ncccc23)[nH]c2ccc(N3CC(NC4CCOCC4)C3)nc12 [Example 33] | 8.19 | 5.72 | 8.72 |  |  |  |  |
| 4-((3-isopropyl-2-(8-methoxy-[1,2,4]triazolo[1,5-a]pyridin-6-yl)-1H-pyrrolo[3,2-b]pyridin-5-yl)oxy)-N,N-dipropylcyclohexan-1-amine [Example 605] |  |  |  | 7.89 | 5.37 | 7.77 |  |
| Cc1c(-c2[nH]c3ccc(N4CC(O)C4)nc3c2C(C)C)cn2ncnc2c1C [Example 38] | 7.68 | 4.35 | 8.28 |  |  |  |  |
| COc1cc(-c2[nH]c3cc(C)c(C4CCC(NC5COC5)CC4)nc3c2C(C)C)cn2ncnc12 (stereo not drawn) [Example 316] | 8.85 | 5.52 | 7.39 |  |  |  |  |
| Cc1c(-c2[nH]c3ccc(N4CCN(C(=O)CNC(C)C)C[C@@H]4C)nc3c2C(C)C)cn2ncnc2c1C [Example 827] |  |  |  |  |  |  | pIC50 (human TLR7; [1]): 9.34; pIC50 (human TLR9; [2]): 5.31; pIC50 (human TLR8; [3]): 9.47 |
| COc1cc(-c2[nH]c3ccc(N4CCN(C5CCS(=O)(=O)CC5)CC4)nc3c2C(C)C)cn2ncnc12 [Example 133] | 8.37 | < 4.30 | 8.85 |  |  |  |  |
| Cc1c(-c2[nH]c3ccc(N4[C@@H]5CC[C@H]4CN(C(=O)CN(C)C(C)(C)C)C5)nc3c2C(C)C)cn2ncnc2c1C [Example 924] |  |  |  |  |  |  | pIC50 (human TLR7; [1]): 8.77; pIC50 (human TLR9; [2]): 5.14; pIC50 (human TLR8; [3]): 8.31 |
